Test results from PubChem BioAssay (NCI).
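1) Cells in 96-well plates. 2) Compound, 48 h, 5 concentrations. 3) Linear interpolation between surrounding doses. 4) Unreached endpoint = highest concentration. GI50: concentration for 50% inhibition of growth. At the TGI there is no net growth.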

How the values were obtained:
Assay in all cases: growth of human tumour cells (NCI), 48 h
[1] = tested on: OVCAR-4 ovarian
[2] = tested on: HL-60(TB) leukemia
[3] = tested on: M14 melanoma
[4] = tested on: OVCAR-5 ovarian
[5] = tested on: OVCAR-3 ovarian
[6] = tested on: OVCAR-8 ovarian
[7] = tested on: HT29 colon
[8] = tested on: RXF 393 renal
[9] = tested on: SNB-75 CNS
[10] = tested on: MCF7 breast

Structure (SMILES)	TGI [1]	TGI [2]	TGI [3]	TGI [4]	TGI [5]	TGI [6]	TGI [7]	TGI [8]	TGI [9]	GI50 [1]	GI50 [2]	GI50 [10]	TGI [10]	GI50 [4]	GI50 [5]	GI50 [6]	GI50 [7]	GI50 [9]	GI50 [3]	GI50 [8]
Cc1cc(N(CCC#N)S(=O)(=O)c2ccccc2)ccc1C=Nc1cccc(C(=O)O)c1	> 100 µM	> 100 µM	> 100 µM	> 100 µM	> 100 µM	> 100 µM	> 100 µM	> 100 µM	> 100 µM											
Cc1c(C)c2c(c(C)c1OC(=O)CCC(=O)[O-])CCC(C)(CCCCCCCCCCC[P+](c1ccccc1)(c1ccccc1)c1ccccc1)O2 (stereo unspecified)	0.891 µM	0.566 µM		0.836 µM	0.542 µM	0.974 µM	2.07 µM		0.49 µM	0.158 µM	0.14 µM	0.161 µM	0.815 µM	0.22 µM	0.145 µM	0.175 µM	0.166 µM	0.123 µM		
O=C([CH-]C(=O)c1ccccc1)c1ccccc1.[C-]#[O+].[C-]#[O+].[Ir]	> 100 µM		> 100 µM	> 100 µM	> 100 µM	> 100 µM	> 100 µM	> 100 µM	> 100 µM	> 100 µM				> 100 µM	> 100 µM	45.4 µM	63.5 µM	45.6 µM	54.3 µM	33.6 µM
CON(C)c1nc(N)c(C#N)c(C#N)c1C#N	> 10 µM	> 10 µM	> 10 µM	> 10 µM	> 10 µM	> 10 µM	> 10 µM	> 10 µM	> 10 µM				> 10 µM							
C=C1CC[C@@]2(C)[C@@H]([C@@H]1C)[C@H]1CC[C@@H]3[C@@]4(C)CC[C@H](O)C(C)(C)[C@@H]4CC[C@@]3(C)[C@]1(C)C[C@@H]2O	6.53 µM	> 55.7 µM	32.7 µM	17.7 µM	16.1 µM		19.6 µM	4.04 µM					9.23 µM							
C1=N[C@]23C(=N[C@H](N=C2NCc2ccco2)[C@]24N=CNC2=N[C@H]3N=C4NCc2ccco2)N1	> 100 µM	> 100 µM	> 100 µM	> 100 µM	> 100 µM	> 100 µM	> 100 µM	> 100 µM	> 100 µM	65 µM	> 100 µM	> 100 µM	> 100 µM	> 100 µM	> 100 µM	> 100 µM	> 100 µM	67.1 µM	> 100 µM	> 100 µM
CC1(CO)C(O)CCC2(C)C1CCC1CC3CC12CCC3(O)CO (stereo unspecified)	> 100 µM	> 100 µM		> 100 µM	> 100 µM	> 100 µM	> 100 µM	> 100 µM	> 100 µM				> 100 µM							
COc1cccc(N/C(C)=C2/CCOC2=O)c1	> 10 µM	> 10 µM	> 10 µM	> 10 µM	> 10 µM	> 10 µM	> 10 µM	> 10 µM	> 10 µM				> 10 µM							
O=C(NN1C(=O)C(Cl)C1c1cccc(O)c1)c1ccccc1O (stereo unspecified)	> 100 µM	> 100 µM	> 100 µM		> 100 µM	> 100 µM	> 100 µM	> 100 µM	> 100 µM											
